The values that follow come from publication PMC7034129, “C-2 phenyl replacements to obtain potent quinoline-based Staphylococcus aureus NorA inhibitors” (Journal of Enzyme Inhibition and Medicinal Chemistry, 2020).

The subject of data set [1] is S. aureus strain SA-1199B (norA+/GrlA mutation). Briefly: Synergistic assays: compounds at 25 µg/mL with scalar concentrations of CPX. Conditions: compound at 25 µg/mL. The class given is cell-based, Staphylococcus aureus. How it is done:
(§1) MICs assays were performed using broth microdilution method in 96 wells-microtiter plates, following the CLSI guidelines.
(data not shown). […] Worthy of note, among the five active compounds, three were thiophene derivatives (35b, 36b and 37a) displaying their activity regardless of the position of the sulphur atom on the thiophene ring.

Data set [2] has as its system S. aureus SA-1199B. The format is cell-based, Staphylococcus aureus. How it is done:
as §1
(§2) Chequerboard assays and time-kill curves were performed as previously described.

The subject of data set [3] is S. aureus strain SA-1199 (norA wild-type). Briefly: Synergistic assay with CPX against norA wild-type strain. The format is cell-based, Staphylococcus aureus. The settings on record: compound at 25 µg/mL, scalar CPX. How it is done: as §1
For data set [4], the system named is SA-1199B. Briefly: MIC evaluation of compound alone (broth microdilution). The format is cell-based. Conditions: Staphylococcus aureus, read-out: antibacterial activity alone (MIC). The procedure:
as §1
The sum of both FIC values led to a FIC index (FICI) < 0.27 showing a significant synergistic effect as widely recognised for FICI values <0.5[40].
In general terms: Broth dilution looks for growth in wells or tubes with falling amounts of substance.

Data set [5] has as its target T1, NorA efflux pump (Staphylococcus aureus, UniProt P0A0J7).
T1 construct: monitoring bacterial fluorescence of SA-1199B, overexpressing norA gene; endogenous in cells; host or cells: Staphylococcus aureus SA-1199B (norA+/GrlA mutation)
Briefly: EtBr efflux assays. Conditions: read-out: EtBr efflux inhibition. The class given is cell-based. The procedure:
The loss of EtBr from S. aureus SA-1199B was determined fluorometrically as previously described. The effect of various concentrations of tested compounds on the EtBr efflux of SA-1199B was compared to that in their absence, allowing the calculation of the percentage reduction in efflux.
Since EtBr is a known NorA substrate resulting fluorescent only when inside bacterial cells, monitoring bacterial fluorescence of SA-1199B, overexpressing norA gene, through a fluorimeter is a fast method to indirectly evaluate NorA inhibition. […] Indeed, we commonly consider as active NorA EPIs those compounds having an EtBr efflux inhibition ≥70%[17]^,[18].

In data set [6] the test system is SA-1199B. Briefly: Time-kill curves in combination with CPX. Conditions: 24 h. The class given is cell-based, Staphylococcus aureus. How it is done:
as §2

Data set [7] is described as follows: Haemolysis assays. The format is cell-based. The procedure: Haemolysis assays were performed as previously described.
In order to evaluate the toxic effects of the derivative 37a, haemolysis assays were performed at scalar compound concentrations in comparison with the starting hit 1 (Figure 4).

The nature of data set [8]: Cell viability assay (ATP bioluminescence). The settings on record: human. How it is done: (§3) THP-1 cells were grown in RPMI 1640 supplemented with 10% heat-inactivated foetal calf serum, 10,000 units of penicillin, and 10 µg of streptomycin/mL overnight to confluence. […] Cell viability was then evaluated using an ATP bioluminescence kit (Via Light kit; Cambrex). Results are expressed as 50% cytotoxic concentration (CC50). The CC50 was defined as the concentration required to reduce the cell number by 50% compared to that for the untreated controls. Each concentration was tested in triplicate.

In data set [9] the test system is human leukemic monocyte cell line (THP-1). Briefly: Cell viability assay (ATP bioluminescence). Conditions: ratio between CC50 (THP-1) and minimum EPI concentration able to reduce by 4-fold CPX MIC. The procedure: as §3
For data set [10], the system named is SA-1199B. Briefly: Membrane potential (polarisation) assays, BacLight kit, DiOC2(3). The format is cell-based, Staphylococcus aureus. Conditions: 30 min. How it is done: Membrane potential assays were carried out by measuring the effect of 1 and 37a on the membrane potential using the BacLight Bacterial Membrane Potential Kit (Molecular Probes, Life Technologies) according to the manufacturer’s instructions. Briefly, SA-1199B was grown in MHB at 37 °C until reaching an OD600 of 0.6. Bacterial cells were then washed in PBS and diluted to 1 × 10^6 CFU/mL with filtered PBS (filter 0.22 µm) in flow cytometry tubes. Ten microliters of 3 mM 3,3-diethyloxacarbocyanine iodide (DiOC2(3) in DMSO) was added to each tube (final concentration 30 µM) and mixed. Then, 1 or 37a from a stock solution in DMSO (10 mg/mL) was added to reach final concentrations of 1, 5, and 10 µg/mL. As positive control, 10 µL of 500 µM carbonyl cyanide m-chlorophenylhydrazone (CCCP, final concentration 5 µM) was used to eradicate the proton gradient by eliminating the membrane potential. The samples were analysed after 30 min by measuring the fluorescence using a cytometer Attune NxT (ThermoFisher Scientific) with a laser emitting at 488 nm and collecting in the green and red channels. The red to green fluorescence ratio was determined and normalised against the emission from the DiOC2(3) blank tube having 1 ml of the bacterial suspension and a final concentration of DiOC2(3) of 30 µM. The results are presented as the percentage of depolarised membranes compared with the drug-free control.
Since efflux pumps need a proton gradient along the bacterial membrane, its modification/disruption can lead to an efflux inhibition. However, this effect cannot be related to a specific EPI activity; on the contrary, it relies on a non-specific interruption of the energy source (protons) that efflux pumps use to extrude their substrates by an antiport mechanism. A typical example of a compound inhibiting efflux pumps activity by this non-specific mechanism is represented by carbonyl cyanide m-chlorophenyl hydrazone (CCCP). […] Membrane polarisation was assessed by cytofluorimeter analysis using the fluorescent probe 3,3-diethyloxacarbocyanine iodide (DiOC2(3)) as its distribution is proton gradient-sensitive.

T1 sequence (P0A0J7 whole entry): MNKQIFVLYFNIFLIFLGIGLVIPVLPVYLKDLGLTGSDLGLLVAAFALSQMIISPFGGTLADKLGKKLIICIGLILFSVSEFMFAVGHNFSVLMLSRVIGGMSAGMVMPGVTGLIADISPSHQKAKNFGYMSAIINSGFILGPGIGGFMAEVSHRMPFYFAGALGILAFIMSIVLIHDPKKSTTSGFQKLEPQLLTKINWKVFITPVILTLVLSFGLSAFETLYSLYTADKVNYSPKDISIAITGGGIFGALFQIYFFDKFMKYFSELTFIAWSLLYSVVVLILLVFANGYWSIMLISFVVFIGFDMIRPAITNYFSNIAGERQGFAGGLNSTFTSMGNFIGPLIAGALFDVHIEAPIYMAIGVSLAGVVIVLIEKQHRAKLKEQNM

Regarding `CCN(CC)CCOc1cc(-c2ccc(Cl)s2)nc2ccccc12.Cl` [Compound 37a, (2-{[2–(5-Chloro-2-thienyl)quinolin-4-yl]oxy}ethyl)diethylamine hydrochloride], the melting point (commonly the temperature, or range, at which the solid turns liquid) fell in the range of 189 to 191 °C. In data set [1], the “reduction of the CPX MIC” value turned out to be 32 fold. Moreover, the “concentration reducing CPX MIC, fold lower than own MIC” value in data set [2] is recorded as at least 64 fold. In addition, in data set [2] (37a + CPX), the “FIC (MIC in combination/MIC alone)” value was below 0.0156 and the “FIC index (FICI)” value is below 0.27. In addition, the “compound concentration reducing the CPX MIC by 4-fold” value in data set [2] (chequerboard with CPX) turned out to be 0.39 µg/mL. The “CPX MIC in combination with compound” value in data set [2] (with 37a) was determined as 2.5 µg/mL. Further, the “synergistic effect with CPX” value in [3] is recorded as “did not exhibit any significant synergistic effect”. The minimal inhibitory concentration (MIC) (usually the least concentration at which growth counts as inhibited) in data set [4] was above 25 µg/mL. Moreover, in [5], the inhibition – broadly, the drop in the measured response relative to a control, in per cent – at 50 µM is 74.3 ± 3.5%. For the same molecule, in data set [6] (37a at 3.13 and 6.25 µg/mL + CPX at its MIC), the “bactericidal activity of combination (time-kill)” value was “strongly significant and definitely higher bactericidal activity than that shown by CPX alone”. Also, the “bactericidal effect of combination (time-kill)” value in data set [6] (37a at 3.13 and 6.25 µg/mL + CPX at ¼ MIC) is on record as “the same bactericidal effect as CPX tested at its MIC”. In data set [7] (20 µg/mL), the haemolytic effect result is recorded as “about 10%” and the “haemolytic effect relative to starting hit 1” value is 3 fold. Also, the haemolytic activity result in [7] (concentrations ≤ 5 µg/mL) is on record as “below 2%”. The CC50 (commonly the concentration that lowers cell viability or growth by half) at 24 h in data set [8] is 6.33 µg/mL. For the same molecule, in data set [9], the “SI, selectivity index” value was determined as 16.2. For the same molecule, the depolarised bacterial membrane entry in data set [10] (1 µg/mL) is recorded as “about 20%”. Further, in [10] (5 µg/mL), the depolarised bacterial membrane entry is given as “about 20%”. In addition, the “depolarised S. aureus membrane” value in data set [10] (10 µg/mL) is above 50%.
